Where “and” joins values, the source holds several entries; their conditions need not be identical. Identical values can stand only once. Like-named read-outs stand apart in the source and are kept apart here.

The results in this text go back to patent US11236083B2, “Compounds and pharmaceutical compositions for modulating SGK activity, and methods thereof” (NEW ERA PHARMA, INC., priority 2016, dated 2022).

One series relates to HeLa. Put plainly: HeLa cell testing (Table 2). The format is cell-based. The settings on record: Homo sapiens; HeLa cells.
For the next series, the target named is T1, Sgk1 (Homo sapiens, UniProt O00141).
T1 sequence (O00141 1-431): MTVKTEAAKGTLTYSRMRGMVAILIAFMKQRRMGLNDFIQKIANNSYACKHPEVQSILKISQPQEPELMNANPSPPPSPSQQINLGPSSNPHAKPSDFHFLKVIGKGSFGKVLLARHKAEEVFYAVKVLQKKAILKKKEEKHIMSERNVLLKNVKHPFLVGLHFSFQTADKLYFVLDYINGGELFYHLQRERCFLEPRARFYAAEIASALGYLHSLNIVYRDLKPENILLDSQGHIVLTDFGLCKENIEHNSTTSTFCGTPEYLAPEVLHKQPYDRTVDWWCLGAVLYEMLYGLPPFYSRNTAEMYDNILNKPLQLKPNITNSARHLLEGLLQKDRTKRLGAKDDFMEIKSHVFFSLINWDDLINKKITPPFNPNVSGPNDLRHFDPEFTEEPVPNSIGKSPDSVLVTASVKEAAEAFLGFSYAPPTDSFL
Description: Enzyme based assay for SGK1 (biotinylated Akt Substrates-2 peptide, Eu3+ Cryptate/XL665 detection). Type of series: biochemical. On the procedure: (§1) 1. Enzyme Based Assays for SGK1, SGK2, SGK3, and Akt1
(§2) The kinase enzymatic reaction is carried out with a biotinylated Akt Substrates-2 peptide substrate. The phosphorylated substrate is then detected using a specific anti-phospho peptide antibody which is coupled with Eu^3+ Cryptate and XL665 conjugated with streptavidin.
(§3) Exemplary Assay Conditions
(§4) • Enzyme: ˜0.1 nM • Substrate: 0.2 μM • ATP: 50 μM and 1 mM • Mg^2+: 10 mM • Reaction time: 60 min with 50 μM ATP and 30 min with 1 mM ATP • SA-XL to Biotin: 1:10
(§5) Detailed Steps • 1. prepare the enzyme and substrate solution with the buffer from Cisbio • 2. add the enzyme and substrate solution to the diluted compound plate • 3. transfer 5 μL of compound, enzyme, and substrate mixture to an 384-well assay plate • 4. add 5 μL ATP (with Mg^2+) solution to initiate the reaction • 5. after certain time, add 10 μL of stop solution containing SA-XL and specific antibody • 6. read the plate after 2 h incubation at rt • 7. process the data using prizm software (Exemplary results are shown in FIG. 1.) 2. PK Studies Protocol

The target in a further series is T2, Sgk2 (Homo sapiens, UniProt Q9HBY8).
T2 sequence (Q9HBY8 1-367): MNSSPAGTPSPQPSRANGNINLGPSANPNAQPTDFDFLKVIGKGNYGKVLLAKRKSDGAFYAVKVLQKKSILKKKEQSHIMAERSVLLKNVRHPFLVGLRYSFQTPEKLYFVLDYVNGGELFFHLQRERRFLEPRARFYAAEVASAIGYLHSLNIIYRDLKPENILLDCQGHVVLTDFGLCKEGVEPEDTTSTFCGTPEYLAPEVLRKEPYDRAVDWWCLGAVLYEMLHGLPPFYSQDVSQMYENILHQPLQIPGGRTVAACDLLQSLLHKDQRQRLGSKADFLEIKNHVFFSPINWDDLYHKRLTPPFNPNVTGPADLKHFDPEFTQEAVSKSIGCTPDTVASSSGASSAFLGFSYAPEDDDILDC
Description: Enzyme based assay for SGK2 (biotinylated Akt Substrates-2 peptide, Eu3+ Cryptate/XL665 detection). Type of series: biochemical. On the procedure: as §1, §2, §3, §4, §5

The subject of the next series is 293T. Put plainly: 293T cell testing (Table 2). Type of series: cell-based. The settings on record: Homo sapiens, HEK-293T; 293T cells.
A further series concerns 293T_O. Description: 293T_O cell testing (Table 2). Type of series: cell-based. Particulars: 293T_O cells.
The next series has as its target T3, hERG channels (Homo sapiens, UniProt Q12809).
T3 construct: expressed in transfected cells
Put plainly: Qpatch hERG assay (automated patch clamp, whole-cell tail current). The format is cell-based. Particulars: for IC50: CHO cell line stably expressing hERG channels, highest test concentration 30 μM. On the procedure:
• Assay platform & method: Automated patch clamp (Qpatch-48) • Cell source: CHO cell line stably expressing hERG channels • Measured parameter: Whole-cell tail current of hERG channels • Test concentration: 6 concentrations (30, 10, 3, 1, 0.3, 0.1 μM)
Example: Qpatch hERG Assay
For orientation: Patch clamp records ionic current or voltage across a cell membrane.

[1] abbreviates: 50 μM ATP, read-out: Sgk1 (50 μM ATP).
Setting [2] is: 1 mM ATP, read-out: Sgk1 (1 mM ATP).
Setting [3] is: 50 μM ATP, read-out: Sgk2 (50 μM ATP).
[4] abbreviates: 1 mM ATP, read-out: Sgk2 (1 mM ATP).

T3 sequence (Q12809 whole entry): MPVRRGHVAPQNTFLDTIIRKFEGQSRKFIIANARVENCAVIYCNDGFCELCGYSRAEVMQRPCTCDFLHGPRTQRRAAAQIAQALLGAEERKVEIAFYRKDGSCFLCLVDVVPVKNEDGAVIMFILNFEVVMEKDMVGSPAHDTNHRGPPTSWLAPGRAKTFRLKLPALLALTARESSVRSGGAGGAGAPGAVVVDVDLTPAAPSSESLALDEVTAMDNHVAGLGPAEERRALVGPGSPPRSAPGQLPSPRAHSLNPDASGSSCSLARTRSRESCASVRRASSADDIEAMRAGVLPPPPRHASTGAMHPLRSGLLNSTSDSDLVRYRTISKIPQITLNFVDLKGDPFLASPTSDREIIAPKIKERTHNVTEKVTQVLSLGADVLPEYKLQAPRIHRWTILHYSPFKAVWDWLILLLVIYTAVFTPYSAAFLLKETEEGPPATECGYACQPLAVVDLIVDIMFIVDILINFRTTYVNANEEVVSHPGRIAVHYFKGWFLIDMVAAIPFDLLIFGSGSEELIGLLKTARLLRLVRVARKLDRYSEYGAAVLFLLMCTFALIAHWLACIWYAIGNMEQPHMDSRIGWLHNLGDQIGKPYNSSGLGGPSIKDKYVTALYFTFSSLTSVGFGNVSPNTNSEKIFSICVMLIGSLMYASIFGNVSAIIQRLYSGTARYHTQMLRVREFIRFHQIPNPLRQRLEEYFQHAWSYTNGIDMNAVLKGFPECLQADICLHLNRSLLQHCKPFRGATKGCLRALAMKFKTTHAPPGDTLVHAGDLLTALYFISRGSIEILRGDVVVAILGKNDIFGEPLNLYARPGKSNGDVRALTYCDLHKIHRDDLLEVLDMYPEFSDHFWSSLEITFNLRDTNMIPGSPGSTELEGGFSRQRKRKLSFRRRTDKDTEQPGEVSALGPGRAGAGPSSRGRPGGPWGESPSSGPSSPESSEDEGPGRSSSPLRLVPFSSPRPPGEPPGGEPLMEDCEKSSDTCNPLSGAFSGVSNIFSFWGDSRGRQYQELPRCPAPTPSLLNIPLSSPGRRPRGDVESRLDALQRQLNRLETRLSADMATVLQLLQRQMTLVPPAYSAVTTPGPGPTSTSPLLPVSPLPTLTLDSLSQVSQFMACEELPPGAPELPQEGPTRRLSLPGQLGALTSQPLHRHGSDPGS

On to `COc1ccc(F)c(S(=O)(=O)Nc2ccc(-c3ccc4c(N)n[nH]c4c3)cc2)c1`, for which the IC50 was 13.7 µM in the series on HeLa; 0.0109 µM at Sgk1 (setting [1]); 0.0358 µM on Sgk1 (setting [2]); 0.0061 µM at Sgk2 (setting [3]); 0.016 µM on Sgk2 (setting [4]); 56.1 µM in the series on 293T. This molecule returned an IC50 in the series on 293T_O of 47.1 µM.
As for `COc1ccc(F)c(S(=O)(=O)Nc2ccc(-c3cc(OC)c4c(N)n[nH]c4c3)cc2)c1` [C, N-(4-(3-amino-4-methoxy-1H-indazol-6-yl)-phenyl)-2-fluoro-5-methoxybenzenesulfonamide], on hERG channels, the IC50 was > 30 µM.
For the molecule `COc1ccc(F)c(S(=O)(=O)Nc2ccc(-c3cc4[nH]ncc4c(SCC4CNCCO4)n3)cc2)c1` (stereo not drawn), the IC50 in the series on HeLa turned out to be 15.6 µM; on Sgk1 (setting [1]), 0.0023 µM; on Sgk1 (setting [2]), 0.0066 µM; on Sgk2 (setting [3]), 0.0034 µM; at Sgk2 (setting [4]), 0.0041 µM; in the series with 293T, 17.9 µM. In the series with 293T_O, the IC50 was found to be 24.5 µM.
As to `COc1ccc(F)c(S(=O)(=O)Nc2ccc(-c3cc4[nH]nc(N)c4cn3)cc2)c1`, the IC50 was 68.4 µM with HeLa; > 0.2 µM at Sgk1 (setting [2]); 0.0055 µM on Sgk2 (setting [3]); 0.0541 µM at Sgk2 (setting [4]); 94.4 µM in the series on 293T; > 100 µM in the series with 293T_O.
For the molecule `COc1ccc(F)c(S(=O)(=O)Nc2ccc(-c3ccc4c(N)n[nH]c4n3)cc2)c1` [J, N-(4-(3-amino-1H-pyrazolo[3,4-b]pyridin-6-yl)-phenyl)-2-fluoro-5-methoxybenzenesulfonamide], the IC50 against hERG channels was > 30 µM.
Turning to `COc1ccc(F)c(S(=O)(=O)Nc2ccc(-c3cnc4cn[nH]c4c3)cc2)c1`, the IC50 in the series on HeLa was 13.8 µM; at Sgk1 (setting [2]), > 0.2 µM; on Sgk2 (setting [3]), 0.0086 µM and 0.0034 µM; on Sgk2 (setting [4]), > 0.2 µM; with 293T, 66.5 µM; with 293T_O, > 100 µM.
`Nc1n[nH]c2cc(-c3ccc(NS(=O)(=O)c4cc(Cl)ccc4F)cc3)ccc12`: the IC50 in the series with HeLa came out at 6.6 µM; on Sgk1 (setting [1]), 0.0032 µM; on Sgk1 (setting [2]), 0.113 µM; at Sgk2 (setting [3]) it was 0.0067 µM; on Sgk2 (setting [4]) it was 0.068 µM; in the series with 293T, 27.6 µM. Also, in the series on 293T_O, the IC50 was found to be 66.8 µM.
Take `COc1ccc(F)c(S(=O)(=O)Nc2ccc(-c3cc4[nH]ncc4c(OCC4CNCCO4)n3)cc2)c1` (stereo not drawn) [drawing 99]: the IC50 in the series with HeLa was 35.8 µM; on Sgk1 (setting [1]), 0.0031 µM; at Sgk1 (setting [2]), 0.0097 µM; at Sgk2 (setting [3]), 0.0008 µM; on Sgk2 (setting [4]) it was 0.0056 µM; with 293T, 47.9 µM. In the series with 293T_O, this molecule displayed an IC50 of 61.2 µM.
Turning to `COc1ccc(F)c(S(=O)(=O)Nc2ccc(-c3cc4[nH]nc(N)c4c(C)n3)cc2)c1` [D, N-(4-(3-amino-4-methyl-1H-pyrazolo[4,3-c]pyr-idin-6-yl)phenyl)-2-fluoro-5-methoxybenzenesulfonamide], the IC50 against hERG channels was 12.2 µM. Also, at hERG channels (Qpatch hERG concentration-response fit), the “Fitting curve Hillslope” value is reported as “Fitting curve Hillslope = 0.88”.
For `COc1ccc(F)c(S(=O)(=O)Nc2ccc(-c3cc(C)c4c(N)n[nH]c4n3)cc2)c1` [E, N-(4-(3-amino-4-methyl-1H-pyrazolo[3,4-b]-pyridin-6-yl)phenyl)-2-fluoro-5-methoxybenzenesulfonamide], the IC50 at hERG channels is > 30 µM.
